Bridge positions count the residues as written; N and C are the ends. Square brackets hold non-standard residues; d marks the D form. Peptide text beside a SMILES is read from it. Sar = CNCC(=O)O
Columns and labels:
Type in all cases: functional
Oryctolagus cuniculus [1] = organism: Oryctolagus cuniculus; experiment: Compound was tested for dose-related reduction of the mean blood pressure on boluses of different dose of 75 mg via ear vein
Oryctolagus cuniculus [2] = organism: Oryctolagus cuniculus; experiment: Compound was tested for dose-related reduction of the mean blood pressure on boluses of different dose of 150 mg via ear vein
Oryctolagus cuniculus [3] = organism: Oryctolagus cuniculus; experiment: Compound was tested for dose-related reduction of the mean blood pressure on boluses of different dose of 300 mg via ear vein
Oryctolagus cuniculus [4] = organism: Oryctolagus cuniculus; experiment: Compound was tested for dose-related reduction of the mean blood pressure on boluses of different dose of 2 mg via ear vein; value ranges from 0 to -20
Oryctolagus cuniculus [5] = organism: Oryctolagus cuniculus; experiment: Compound was tested for dose-related reduction of the mean blood pressure on boluses of different dose of 1 mg via ear vein; value ranges from 0 to -20
Oryctolagus cuniculus [6] = experiment: Compound was tested for dose-dependent hypertensive response in infused anesthetized rabbits at 1 ug/min
Oryctolagus cuniculus [7] = experiment: Compound was tested for dose-dependent hypertensive response in infused anesthetized rabbits at 3 ug/min
Oryctolagus cuniculus [8] = experiment: Compound was tested for dose-dependent hypertensive response in infused anesthetized rabbits at 2 ug/min
Oryctolagus cuniculus [9] = organism: Oryctolagus cuniculus; experiment: Compound was tested for dose-related reduction of the mean blood pressure on boluses of different dose of 0.2 mg via ear vein; value ranges from -40 to -60
Oryctolagus cuniculus [10] = organism: Oryctolagus cuniculus; experiment: Compound was tested for dose-related reduction of the mean blood pressure on boluses of different dose of 0.05 mg via ear vein; value ranges from -20 to -40
Oryctolagus cuniculus [11] = organism: Oryctolagus cuniculus; experiment: Compound was tested for dose-related reduction of the mean blood pressure on boluses of different dose of 0.1 mg via ear vein
Oryctolagus cuniculus [12] = experiment: Compound was tested for dose-dependent hypertensive response in infused anesthetized rabbits at 20 ug/min
Oryctolagus cuniculus [13] = experiment: Compound was tested for dose-dependent hypertensive response in infused anesthetized rabbits at 10 ug/min
Oryctolagus cuniculus [14] = experiment: Compound was tested for dose-dependent hypertensive response in infused anesthetized rabbits at 30 ug/min

CC[C@H](C)[C@H](NC(=O)[C@@H]1CCCN1C(=O)[C@H](Cc1c[nH]cn1)NC(=O)[C@@H]1CCCCNC(=O)CC[C@H](NC(=O)[C@H](CCCN=C(N)N)NC(=O)CNC)C(=O)N[C@@H](Cc2ccc(O)cc2)C(=O)N1)C(=O)O (H-[Sar]REYKHPI-OH; lactam 3-5)
Delta mean blood pressure (Oryctolagus cuniculus [1]): 0 | Delta mean blood pressure (Oryctolagus cuniculus [2]): 0 | Delta mean blood pressure (Oryctolagus cuniculus [3]): -20

OCc1nc2ccccc2n1Cc1ccc(-c2ccccc2C2=NC(Cc3ccccc3)N=N2)cc1 (centres undefined)
Delta mean blood pressure (Oryctolagus cuniculus [4]): 0 | Delta mean blood pressure (Oryctolagus cuniculus [5]): 0

CC[C@H](C)[C@H](NC(=O)[C@H](Cc1ccc(O)cc1)NC(=O)[C@@H](NC(=O)[C@H](CCCNC(=N)N)NC(=O)[C@@H](N)CC(=O)O)C(C)C)C(=O)N[C@@H](Cc1cnc[nH]1)C(=O)N1CCC[C@H]1C(=O)N[C@@H](Cc1ccccc1)C(=O)O [ANGIOTENSIN II]
Response (Oryctolagus cuniculus [6]): 20% | Response (Oryctolagus cuniculus [7]): 40% | Response (Oryctolagus cuniculus [8]): 20%

CCCCc1nc(Cl)c(CO)n1Cc1ccc(-c2ccccc2-c2nnn[nH]2)cc1 [LOSARTAN]
Delta mean blood pressure (Oryctolagus cuniculus [9]): -40 | Delta mean blood pressure (Oryctolagus cuniculus [10]): -20 | Delta mean blood pressure (Oryctolagus cuniculus [11]): -40

CNCC(=O)N[C@@H](CCCN=C(N)N)C(=O)N[C@H]1CCC(=O)NCCCC[C@@H](C(=O)N[C@@H](Cc2c[nH]cn2)C(=O)N2CCC[C@H]2C(=O)N[C@@H](Cc2ccccc2)C(=O)O)NC(=O)[C@H](Cc2ccc(O)cc2)NC1=O (H-[Sar]REYKHPF-OH; lactam 3-5)
Response (Oryctolagus cuniculus [12]): 40% | Response (Oryctolagus cuniculus [13]): 0% | Response (Oryctolagus cuniculus [14]): 60%
